This note sets out measurements from patent US20150231045A1, “ANTI-DANDRUFF COMPOSITION COMPRISING 1-ACETOXYCHAVICOL ACETATE” (AnalytiCon Discovery GmbH, priority 2012, published 2015).

A word on the inhibition: it is the relative decrease from the control value, in per cent.

In brackets after ≈: the same amount, converted by molar mass.

Test [1] has as its system Malassezia sympodialis ATCC 42132. The test is described as follows: Classic assay for susceptibility testing of planktonically growing cells (OD580). As to conditions: for inhibition at 12.5 µg/mL: read-out: Classic Assay, planktonic growth, inhibition. The class given is cell-based, Malassezia sympodialis (former M. furfur). The method, then:
Routine cultivation of M. sympodialis: M. sympodialis (former M. furfur) CBS 1878 was obtained from the Centraalbureau voor Schimmelcultures Fungal Biodiversity Centre. It was routinely grown on Dixon-agar plates in a humid atmosphere (“wet box”) at 33° C., or in Sabouraud-Maltose (SM) broth complemented with Tween80 and Glycerin-monostearate for liquid cultures in shake-flasks (300 ml operated with 50 ml medium) with agitation (150 rpm).
(§1) General Assay Conditions • 1. Strain: Malassezia sympodialis ATCC 42132 • 2. Growth conditions: • Sabouraud-medium supplemented with dextrose (20 g/l), Tween 80 (1%) and glycerol-monostearat (emulsifier; 0.05%). Static incubation in flat-bottom 96-well microtiterplates (total volume 340 μl, working volume 200 μl; surface area 148 mm2). Incubation at 33° C. in humid atmosphere (wet-box) to avoid dessication. Incubation periods vary according to the assay format. Suspensions used for inoculation were adjusted to an optical density (OD580) of 0.1 • 3. […] Controls • Sterile media was used as negative control; cells cultivated in absence of any test compound but in presence of equal amounts of DMSO compared to samples (see below) were regarded as positive control (unrestricted growth) • 5. All compounds (test-samples and references) are dissolved in DMSO. […] Unless otherwise stated, test compound concentration was 12.5 μg/ml
Routine susceptibility testing of M. sympodialis in high throughput format was done by simultaneous addition of test compounds and inoculum. Seven days after inoculation and when planktonic growth of the untreated control ceased, the effect of the test compounds was evaluated by comparison of the turbidity (optical density, OD580) of treated and untreated samples (control; 100%).
The classic assay is the platform to determine dose-response relationships, where serial dilutions of compounds are evaluated. For description of these relationships, values for the minimal effective concentration and the concentration effective in reducing cell proliferation by 50% (IC50) are generated.

The test system is the same in test [2]. The test is described as follows: Mid-log assay (compound added at half-maximum OD580). Format: cell-based, Malassezia sympodialis (former M. furfur). As to conditions: Example 7; for inhibition at 12.5 µg/mL: Malassezia sympodialis, ATCC42132, read-out: Mid-log Assay %-inhibition compared to benchmark. The method, then:
Cells are cultivated to half-maximal OD580 before test compounds are added (arrow). Value of OD580 at time of sample application is set 100%. […] Blue diamonds, untreated control cells; pink rectangles, cells treated with test compounds.
as §1
For the so called “mid-log assay”, cells are grown to half-maximum optical density before test compounds are added. […] Numbers for OD580 of untreated control samples and samples treated with test compounds are compared to t0-value, which is defined as the 100% level. The value for OD580 of the untreated control sample in stationary phase (end of experiment) is defined as the “control-level” (for unrestricted growth). Values for control-levels are solely dependent on t0-values and therefore vary with each experiment; thus, they cannot be standardised.
Exponentially growing cells (mid-log) are in a defined active state with respect to proliferation and metabolic activity. […] Moreover, the mode of inhibition caused by the test compound can be determined (see above).

Setting [3] is: Malassezia sympodialis, ATCC42132, Example 7, 12.5 μg/ml unless otherwise stated.
Where [4] appears, read: 12.5 μg/ml unless otherwise stated.

In the case of `C=CC(OC(C)=O)c1ccc(OC(C)=O)cc1` (stereo not drawn) [1-acetoxychavicol, 1-acetoxychavicol acetate], the inhibition at 12.5 µg/mL in test [1] (setting [3]) stood at 61%; in test [2] (setting [4]), 11%. In addition, the “Mid-log Assay Level-%” value in test [2] (OD580 at addition = 100%, Control-level 399) turned out to be 379%.

As to `CC(C)(C)C(=O)C(Oc1ccc(Cl)cc1)n1ccnc1` (stereo not drawn) [Crinipan, climbazole], the inhibition at 12.5 µg/mL amounted to 93% in test [1] (setting [3]) and 66% in test [2] (setting [4]). Also, in test [1] (Malassezia sympodialis, ATCC42132, serial dilutions, classic assay, read-out: IC50 (concentration reducing cell proliferation by 50%), planktonic growth), the IC50 is 0.2 µg/mL (≈ 0.683 µM).

Regarding Zinc Pyrithione, the “Classic Assay, planktonic growth, inhibition” value in test [1] (Example 7, 12.5 μg/ml unless otherwise stated) is on record as 73% inhibition. The “IC50 (concentration reducing cell proliferation by 50%), planktonic growth” value in test [1] (serial dilutions, classic assay) came out at 12.4 µg/mL. In addition, the “Mid-log Assay %-inhibition compared to benchmark” value in test [2] (setting [4]) came to 16%.
